Results on 43 molecules are retold here after patent EP4813992A1, “POLYARYL DERIVATIVE AND USE THEREOF” (Hangzhou HealZen Therapeutics Co., Ltd., priority 2023, dated 2025).

The target of the assay is HPK1 kinase (Homo sapiens, UniProt Q92918). Nature of the assay: Lantha screen assay, inhibitory effect on HPK1 kinase. The conditions noted are these: initial compound concentration 1 µM. In kind it is biochemical. On the procedure: The Lantha screen assay is used to evaluate the inhibitory effect of the compounds on HPK1 kinase. • a) Kinase buffer: 50 mM HEPES (pH 7.5), 10 mM MgCl2, 4 mM DTT, 0.01% Tween-20, 0.01% BSA. • b) Compound Preparation: The compound is diluted with DMSO, and the initial detection concentration of the compound is 1 µM and is diluted to the corresponding concentration. • c) Kinase response and termination: A kinase solution is prepared by adding kinase buffer, the kinase solution and the compound are added to the test plate to be incubated at room temperature for 10 minutes. Fluorescein-PKC and ATP are added to the kinase buffer to form a substrate solution, and 5 µl of the substrate solution is added to the test plate to start the reaction to be incubated at room temperature for 90 minutes; then, 10 µl of a mixture of antibody and EDTA is added to terminate the reaction to be incubated at room temperature for 60 minutes. • d) The date is read by Envision instrument to plot a curve with the Log concentration of the inhibitor as the X-axis and the inhibition rate as the Y-axis, and then the formula Y=Bottom + (Top-Bottom)/(1+(IC50/X)^HillSlope) is used to obtain IC50. Table 1 Inhibitory activity the compounds of the invention on HPK1 kinase
Sequence of HPK1 kinase (Q92918 whole entry): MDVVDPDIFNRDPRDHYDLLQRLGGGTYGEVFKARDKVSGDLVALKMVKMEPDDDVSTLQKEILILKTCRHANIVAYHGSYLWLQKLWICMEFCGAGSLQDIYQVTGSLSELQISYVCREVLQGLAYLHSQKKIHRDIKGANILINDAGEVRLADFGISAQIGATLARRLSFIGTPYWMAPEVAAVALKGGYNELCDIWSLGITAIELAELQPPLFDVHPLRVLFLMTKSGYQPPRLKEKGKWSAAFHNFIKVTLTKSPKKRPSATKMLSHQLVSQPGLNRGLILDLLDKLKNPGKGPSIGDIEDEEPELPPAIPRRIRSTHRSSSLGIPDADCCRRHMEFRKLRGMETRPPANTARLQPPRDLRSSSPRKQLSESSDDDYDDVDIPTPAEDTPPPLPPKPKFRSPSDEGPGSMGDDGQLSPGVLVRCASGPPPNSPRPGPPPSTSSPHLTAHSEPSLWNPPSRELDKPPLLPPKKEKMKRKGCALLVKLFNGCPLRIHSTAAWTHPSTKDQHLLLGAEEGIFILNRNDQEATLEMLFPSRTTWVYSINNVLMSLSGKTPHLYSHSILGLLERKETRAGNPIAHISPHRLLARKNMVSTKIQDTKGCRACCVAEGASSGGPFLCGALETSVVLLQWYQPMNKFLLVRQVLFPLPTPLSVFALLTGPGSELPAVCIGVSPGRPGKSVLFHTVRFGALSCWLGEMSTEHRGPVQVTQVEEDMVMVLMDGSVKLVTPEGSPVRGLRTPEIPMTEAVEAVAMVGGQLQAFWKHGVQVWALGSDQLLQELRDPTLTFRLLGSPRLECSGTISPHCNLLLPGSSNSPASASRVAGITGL
In the case of `Cc1cc(-c2cnc3[nH]cc(-c4ccc(C(=O)N(C)C)cc4)c3n2)cc(C)c1C1=CCN(CC2CN(c3cccc4c(C5CCC(=O)NC5=O)coc34)C2)CC1` (stereo not shown) [compound 147], the half-maximal inhibitory concentration (IC50) (in general, the concentration needed to halve the response being measured) was less than 0.01 µM.
Molecule `Cc1cc(NCC2(CN3CC=C(c4c(C)cc(-c5cnc6[nH]cc(-c7ccc(C(=O)N(C)C)cc7)c6n5)cc4C)CC3)CC2)ccc1N1CCC(=O)NC1=O` [compound 040] came in with an IC50 of less than 0.01 µM.
In turn, `Cc1cc(-c2cnc3[nH]cc(-c4ccc(C(=O)N(C)C)cc4)c3n2)cc(C)c1C1=CCN(C2CC3(CCN(c4ccc(C5CCC(=O)NC5=O)c(F)c4)C3)C2)CC1` (stereo not shown) [compound 045] yielded an IC50 of less than 0.01 µM.
In the case of `Cc1cc(-c2cnc3[nH]cc(-c4ccc(C(=O)N(C)C)c(F)c4)c3n2)cc(C)c1C1=CCN(CC2CN(c3ccc(C(=O)NC4CCC(=O)NC4=O)cc3)C2)CC1` (stereo not shown) [compound 029], the IC50 was less than 0.01 µM.
Molecule `Cc1cc(N2CC(CN3CC=C(c4c(C)cc(-c5cnc6[nH]cc(-c7cnn(C8CCN(C9CCC9)CC8)c7)c6c5)cc4C)CC3)C2)ccc1N1CCC(=O)NC1=O` [compound 122] showed an IC50 of less than 0.01 µM.
The figure for `Cc1cc(N2CC(CCN3CC=C(c4c(C)cc(-c5cnc6[nH]cc(-c7ccc(C(=O)N(C)C)cc7)c6n5)cc4C)CC3)C2)ccc1N1CCC(=O)NC1=O` [compound 127] is less than 0.01 µM.
The figure for `Cc1cc(-c2cnc3[nH]cc(-c4ccc(C(=O)N(C)C)cc4)c3n2)cc(C)c1C1=CCN(CC2CN(c3ccc(C4CCC(=O)NC4=O)cc3)C2)CC1` (stereo not shown) [compound 102] is less than 0.01 µM.
With `Cc1cc(N2CC(CN3CC=C(c4c(C)cc(-c5cnc6[nH]cc(-c7cnn(C8CCNCC8)c7)c6c5)cc4C)CC3)C2)ccc1N1CCC(=O)NC1=O` [compound 134], the IC50 was less than 0.01 µM.
The figure for `Cc1cc(-c2c[nH]c3ncc(-c4cc(C)c(C5=CCN(CC6CN(c7ccc(C(=O)NC8CCC(=O)NC8=O)cc7)C6)CC5)c(C)c4)nc23)ccc1C(=O)N1CC2(COC2)C1` (stereo not shown) [compound 050] is less than 0.01 µM; for `Cc1cc(-c2cnc3[nH]cc(-c4ccc(C(=O)N(C)C[C@H](C)O)cc4)c3n2)cc(C)c1C1=CCN(CC2CN(c3ccc(C(=O)NC4CCC(=O)NC4=O)cc3)C2)CC1` (stereo partly shown) [compound 032] it is less than 0.01 µM; for `Cc1cc(-c2cnc3[nH]cc(-c4ccc(C(=O)N(C)C)cc4)c3c2)cc(C)c1C1=CCN(CC2CN(c3ccc(C(=O)NC4CCC(=O)NC4=O)cc3)C2)CC1` (stereo not shown) [compound 063] it is less than 0.01 µM.
Consider `Cc1cc(-c2cnc3[nH]cc(-c4ccc(C(=O)N(C)C)cc4)c3n2)cc(C)c1C1=CCN(CC2CN(c3ccc4c(=O)n(C5CCC(=O)NC5=O)ccc4c3)C2)CC1` (stereo not shown) [compound 084], for which the IC50 was less than 0.01 µM.
The figure for `COc1ccc(C(=O)N2CCC(CN3CC=C(c4c(C)cc(-c5cnc6scc(-c7ccc(C(=O)N(C)C)cc7)c6n5)cc4C)CC3)C2)cc1N1CCC(=O)NC1=O` (stereo not shown) [compound 082] is less than 0.01 µM.
With `COc1ccc(C(=O)N2CC(CN3CC=C(c4c(C)cc(-c5cnc6[nH]cc(-c7ccc(C(=O)N(C)C)cc7)c6n5)cc4C)CC3)C2)cc1N1CCC(=O)NC1=O` [compound 001], the IC50 was less than 0.01 µM.
The figure for `Cc1cc(-c2cnc3[nH]nc(-c4ccc(C(=O)N(C)C)cc4)c3c2)cc(C)c1C1=CCN(CC2CCN(C(=O)c3ccc(F)c(N4CCC(=O)NC4=O)c3)C2)CC1` (stereo not shown) [compound 078] is less than 0.01 µM; for `Cc1cc(NCC2(CN3CC=C(c4c(C)cc(-c5cnc6[nH]cc(-c7ccc(C(=O)N(C)C)cc7)c6n5)cc4C)CC3)CCC2)ccc1N1CCC(=O)NC1=O` [compound 041] it is less than 0.01 µM.
For the molecule `Cc1cc(-c2cnc3[nH]cc(-c4ccc(C(=O)N(C)C)cc4)c3n2)cc(C)c1C1=CCN(CC2CCN(c3ccc(C(=O)NC4CCC(=O)NC4=O)cc3)CC2)CC1` (stereo not shown) [compound 065], the IC50 was less than 0.01 µM.
On to `Cc1cc(-c2cnc3[nH]cc(-c4ccc(C(=O)N(C)C)cc4)c3n2)cc(C)c1C1=CCN(CC2CN(c3ccc(C(=O)NC4CCC(=O)NC4=O)c(F)c3)C2)CC1` (stereo not shown) [compound 100], for which the IC50 was less than 0.01 µM.
Turning to `Cc1cc(-c2cnc3[nH]cc(-c4ccc(C(=O)N(C)C)cc4)c3n2)cc(C)c1C1=CCN(CC2CN(c3ccc(NC4CCC(=O)NC4=O)cc3F)C2)CC1` (stereo not shown) [compound 106], the IC50 is less than 0.01 µM.
`Cc1cc(N2CC3CC(N4CC=C(c5c(C)cc(-c6cnc7[nH]cc(-c8ccc(C(=O)N(C)C)cc8)c7c6)cc5C)CC4)CC3C2)ccc1N1CCC(=O)NC1=O` (stereo not shown) [compound 115] came in with an IC50 of less than 0.01 µM.
`CCN1CCC(n2cc(-c3c[nH]c4ncc(-c5cc(C)c(C6=CCN(CC7CN(c8ccc(C9CCC(=O)NC9=O)cc8)C7)CC6)c(C)c5)nc34)cn2)CC1` (stereo not shown) [compound 056] gave an IC50 of less than 0.01 µM.
`COc1cc(N2CC(CN3CC=C(c4c(C)cc(-c5cnc6[nH]cc(-c7ccc(C(=O)N(C)C)cc7)c6n5)cc4C)CC3)C2)ccc1C(=O)NC1CCC(=O)NC1=O` (stereo not shown) [compound 059] yielded a 50% inhibitory concentration (IC50) of less than 0.01 µM.
For `Cc1cc(-c2cnc3[nH]cc(-c4ccc5c(c4)C(C)(C)OC5=O)c3n2)cc(C)c1C1=CCN(C2CN(c3ccc(C4CCC(=O)NC4=O)cc3)C2)CC1` (stereo not shown) [compound 066], the IC50 is less than 0.01 µM.
The figure for `Cc1cc(-c2cnc3[nH]cc(-c4ccc(C(=O)N(C)C)cc4)c3n2)cc(C)c1C1=CCN(CC2CN(c3ccc(NC4CCC(=O)NC4=O)cc3)C2)CC1` (stereo not shown) [compound 043] is less than 0.01 µM; for `Cc1cc(-c2cnc3[nH]cc(-c4ccc(C(=O)N(C)C)cc4)c3n2)cc(C)c1C1=CCN(C2CN(C(=O)c3ccc(NC4CCC(=O)NC4=O)cc3)C2)CC1` (stereo not shown) [compound 020] it is less than 0.01 µM.
For the molecule `Cc1cc(-c2cnc3[nH]nc(-c4ccc(C(=O)N(C)C)cc4)c3c2)cc(C)c1C1=CCN(CC2CN(c3ncc(C(=O)NC4CCC(=O)NC4=O)o3)C2)CC1` (stereo not shown) [compound 077], the IC50 was less than 0.01 µM.
Turning to `Cc1ccc(C(=O)N2CC(N3CC=C(c4c(C)cc(-c5cnc6[nH]cc(-c7ccc8c(c7)CCN(C)C8=O)c6n5)cc4C)CC3)C2)cc1N1CCC(=O)NC1=O` [compound 072], the IC50 is less than 0.01 µM.
The figure for `Cc1cc(-c2cnc3[nH]cc(-c4ccc(C(=O)N(C)C)cn4)c3n2)cc(C)c1C1=CCN(CC2CN(c3ccc(C(=O)NC4CCC(=O)NC4=O)cc3)C2)CC1` (stereo not shown) [compound 031] is less than 0.01 µM; for `Cc1cc(N2CC(CN3CC=C(c4c(C)cc(-c5cnc6[nH]cc(-c7cnn(C8CCN(C(C)CC(=O)N(C)C)CC8)c7)c6c5)cc4C)CC3)C2)ccc1N1CCC(=O)NC1=O` (stereo not shown) [compound 136] it is less than 0.01 µM; for `Cc1ccc(C(=O)N2CC(CN3CC=C(c4c(C)cc(-c5cnc6[nH]cc(-c7cnc8c(c7C)NCCO8)c6n5)cc4C)CC3)C2)cc1N1CCC(=O)NC1=O` [compound 069] it is less than 0.01 µM.
The result for `Cc1cc(-c2cnc3[nH]cc(-c4ccc(C(=O)N(C)C)cc4)c3n2)cc(C)c1C1=CCN(CC2CN(c3ccc(C(=O)N[C@H]4CCC(=O)NC4=O)c(F)c3)C2)CC1` [compound 071] reads less than 0.01 µM; that for `Cc1cc(N2CCC(CN3CC=C(c4c(C)cc(-c5cnc6[nH]cc(-c7ccc(C(=O)N(C)C)cc7)c6n5)cc4C)CC3)C2)ccc1N1CCC(=O)NC1=O` (stereo not shown) [compound 123], less than 0.01 µM.
The figure for `Cc1cc(C(=O)N2CC(N3CC=C(c4c(C)cc(-c5cnc6[nH]cc(-c7ccc(C(=O)N(C)C)cc7)c6n5)cc4C)CC3)C2)ccc1C1CCC(=O)NC1=O` (stereo not shown) [compound 010] is less than 0.01 µM.
`Cc1cc(-c2cnc3[nH]cc(-c4ccc(C(=O)N(C)C)cc4)c3n2)cc(C)c1C1=CCN(CCCC(=O)c2ccc(C3CCC(=O)NC3=O)cc2)CC1` (stereo not shown) [compound 033] displayed an IC50 of less than 0.01 µM.
The result for `Cc1cc(-c2cnc3[nH]cc(-c4ccc(C(=O)N(C)C)cc4)c3n2)cc(C)c1C1=CCN(C2CN(Cc3ccc(F)c(N4CCC(=O)NC4=O)c3)C2)CC1` [compound 038] reads less than 0.01 µM; that for `Cc1cc(-c2cnc3[nH]cc(-c4ccc(C(=O)N(C)C)cc4)c3n2)cc(C)c1C1=CCN(CC2CN(c3cc(F)c(C4CCC(=O)NC4=O)c(F)c3)C2)CC1` (stereo not shown) [compound 002], less than 0.01 µM; that for `Cc1cc(-c2cnc3[nH]cc(-c4ccc(C(=O)N(C)C)cc4)c3n2)cc(C)c1C1=CCN(CC2CN(c3ccc(NC4CCC(=O)NC4=O)cn3)C2)CC1` (stereo not shown) [compound 022], less than 0.01 µM.
On to `Cc1cc(-c2cnc3[nH]cc(-c4ccc(C(=O)N(C)C)cc4)c3n2)cc(C)c1C1=CCN(C2CN(c3ccc(C4CCC(=O)NC4=O)cc3)C2)CC1` (stereo not shown) [compound 048], for which the IC50 is less than 0.01 µM.
The result for `Cc1cc(N2CC(CN3CC=C(c4c(C)cc(-c5cnc6[nH]cc(-c7cnn(C8CCN(C9CC9)CC8)c7)c6c5)cc4C)CC3)C2)ccc1N1CCC(=O)NC1=O` [compound 118] reads less than 0.01 µM; that for `Cc1cc(-c2cnc3[nH]cc(-c4ccc(C(=O)N(C)C)cc4)c3n2)cc(C)c1C1=CCN(CC2CN(c3ccc(NC4CCC(=O)NC4=O)nc3)C2)CC1` (stereo not shown) [compound 087], less than 0.01 µM.
The result for `Cc1cc(N2CCC3(CCC(N4CC=C(c5c(C)cc(-c6cnc7[nH]cc(-c8ccc(C(=O)N(C)C)cc8)c7n6)cc5C)CC4)C3)C2)ccc1N1CCC(=O)NC1=O` (stereo not shown) [compound 017] reads less than 0.01 µM; that for `COc1ccc(C(=O)N2CC(CN3CC=C(c4ncc(-c5cnc6[nH]cc(-c7ccc(C(=O)N(C)C)cc7)c6n5)cc4CN(C)C)CC3)C2)cc1N1CCC(=O)NC1=O` [compound 053], less than 0.01 µM; that for `Cc1cc(-c2cnc3[nH]cc(-c4ccc(C(=O)N(C)C)cc4)c3n2)cc(C)c1C1=CCN(C2CN(c3cc(F)c(C4CCC(=O)NC4=O)c(F)c3)C2)CC1` (stereo not shown) [compound 007], less than 0.01 µM.
